Values of other authors as cited in patent US11447440B2, “Treprostinil monohydrate crystals and methods for preparation thereof” (CHIROGATE INTERNATIONAL INC., priority 2020, dated 2022).
Read-outs that look alike come from different tables or passages of the source.

Details: for Treprostinil dimer formation on standing: stability tests

| SMILES | Treprostinil dimer formation on standing (at 5° C.) | Treprostinil dimer formation on standing (at higher temperature (than 25° C.)) | Treprostinil dimer formation on standing (standing at 25° C.) | Treprostinil dimer formation (accelerated stability tests at 25° C., 30° C. and 40° C. for 6 months (Lot No. 01M07033)) | stability in comparison with the anhydrous Treprostinil crystal (storage at room temperature over a long period of time) |
| --- | --- | --- | --- | --- | --- |
| CCCCC[C@H](O)CC[C@@H]1[C@H]2Cc3cccc(OCC(=O)O)c3C[C@H]2C[C@H]1O [anhydrous Treprostinil] | negligible | increased | continuing to form |  |  |
| CCCCC[C@H](O)CC[C@@H]1[C@H]2Cc3c(cccc3OCC(=O)O)C[C@H]2C[C@H]1O.O [Treprostinil monohydrate crystal] |  |  |  | almost negligible | more stable |
